Results from patent US20080234323A1, “Amorphous and Three Crystalline Forms of Rimonabant Hydrochloride” (priority 2005, published 2008).

Assay: Solubility of different forms of Rimonabant hydrochloride in solvents
Type: physicochemical
Settings: at R.T.
From the text: • All the forms were soluble in alcohols such as methanol, ethanol etc.

solubility in acetone: partly soluble
solubility in acetonitrile: partly soluble
Compound: Cc1c(C(=O)NN2CCCCC2)nn(-c2ccc(Cl)cc2Cl)c1-c1ccc(Cl)cc1 [Form II, 5-(4-chlorophenyl)-1-(2,4-dichlorophenyl)-4-methyl-N-(piperidin-1-yl)pyrazole-3-carboxamide]
